The text below walks through data of patent publication US20110129868A1, “CELL CAPABLE OF REPLICATING NOVEL HCV REPLICON, CELL CAPABLE OF REPLICATING FULL-LENGTH HCV RNA, AND USE OF THOSE CELLS” (priority 2008, published 2011).

Read-outs that look alike come from different tables or passages of the source. Where only a bound is given, the exact number is not on record here.

Data set [1] has as its system full-length HCV RNA replication in OR6 cells. Briefly: microbe, parasite or virus in culture. Type of data set: cell-based, HCV-O strain (genotype 1b). To be noted: OR6 cells; for EC50: luciferase activity after 72 hours. The source says:
(§1) Renilla luciferase was quantified by collecting cells using a Renilla Luciferase Assay System (Promega) according to the manufacturer's experiment protocol.
An OR6-cell assay system was used as a control.

The subject of another data set is ORL11 cells. Briefly: cell count by trypan blue staining, ORL11 cells. Format: cell-based, human.
For data set [2] the following is noted: in vivo; cited from earlier work.
In another data set the test system is OR6 cells. Briefly: cell count by trypan blue staining, OR6 cells. The conditions noted are these: drug at the concentration corresponding to the EC50 value. Format: cell-based, human.
In data set [3] the test system is full-length HCV RNA replication in ORL11 cells. Briefly: microbe, parasite or virus in culture. To be noted: for measured luciferase activity value: 24 hours after the addition, 750,000 without IFN-α. Type of data set: cell-based, HCV-O strain (genotype 1b). On the procedure: as §1
(§2) Luciferase activity of each cell line was then measured at hour 24, 48, and 72. […] SD values were calculated based on the results from three samples at each point. […]

Data set [4] deals with full-length HCV RNA replication in ORL8 cells. Briefly: microbe, parasite or virus in culture. Format: cell-based, HCV-O strain (genotype 1b). The conditions noted are these: ORL8 cells; for measured luciferase activity value: 24 hours after the addition, 380,000 without IFN-α. On the procedure:
as §1, §2

In data set [5] the test system is ORL8, ORL11, and OR6 cells. Briefly: cell count / cytotoxicity check, cell lines not itemised. The conditions noted are these: at a concentration of 12.5 μM.
Procedure: In order to ascertain that the decrease in luciferase activity in response to the addition of ribavirin was not due to the cell growth inhibition or cytotoxicity by ribavirin, the cells were cultured under the same conditions used for the luciferase assay, and counted using a trypan blue staining technique. The effect of adding ribavirin in the concentration corresponding to the EC50 value of each cell line was examined.
FLV (Calbiochem, 344095) was used.
In data set [6] the test system is full-length HCV RNA replication in OR6 cells. The conditions noted are these: OR6 cell assay system (Naka et al., BBRC 2005); cited from earlier work.
For the next data set, the system named is ORL8 cells. Briefly: cell count by trypan blue staining, ORL8 cells. Type of data set: cell-based, human. The conditions noted are these: drug at the concentration corresponding to the EC50 value.
Data set [7] deals with HCV replicon RNA replication in sORL11 (pool) cells. Briefly: luciferase reporter assay using sORL11 (pool) cells. Type of data set: cell-based, HCV-O strain (genotype 1b). To be noted: luciferase activity after 72 hours.
Excerpt: as §1
(§3) In the ORN/3-5B/QR, KE, SR (replicon RNA)-introduced OL8c and OL11c cells, G418-resistant cells filled the dish in 2 weeks (FIG. 9). Because the whole cells were estimated to be several tens of thousands of colonies, the G418-resistant cells were mixed without cloning, and used as reporter gene-carrying replicon-replicating cells (sORL8 (pool) cells and sORL11 (pool) cells). These cells had luciferase activities measuring 8×10^5 and 15×10^5, respectively, in terms of actual measurement values per 2×10^5 cells (Promega assay kit). […] Note that the doubling time of the cells using a common subculture medium (in the presence of G418) was calculated as 53 hours and 40 hours. It was also confirmed that the replicon RNA in these cells were not incorporated into the host DNA (the results are not presented).
(§4) The same experiments were conducted using sORL8 (pool) cells and sORL11 (pool) cells.
On the technique in general: In a reporter assay the amount or activity of a reporter protein is the signal.

The test system of data set [8] is full-length HCV RNA replication in OL8, OL11, and OL14 cells. The conditions noted are these: IFN-α 50, 100, or 200 IU/ml every 4 days; 25 days; as in O cells. The source says: The colonies that appeared as G418 resistant cells were stained with CBB solution (FIG. 7). […] No G418-resistant cell colonies were obtained in OL14 cells.
Data set [9] deals with HCV replicon RNA replication in sORL8 (pool) cells. Briefly: luciferase reporter assay using sORL8 (pool) cells. Format: cell-based, HCV-O strain (genotype 1b). To be noted: luciferase activity after 72 hours.
Excerpt: as §1, §3, §4

In data set [10] the test system is full-length HCV RNA replication in 1B-4RL8 cells. Briefly: luciferase activity and HCV RNA level in 1B-4RL8 cells. Format: cell-based, HCV strain 1B-4 (genotype 1b). The conditions noted are these: 24 hours after the addition of IFN-α (1, 10, 100 IU/ml). On the procedure:
(§5) Total RNA was extracted from the HCV RNA replicating cells using an RNeasy Mini Kit (Qiagen) according to the manufacturer's experiment protocol. First, using 2 μg of RNA as a template, reverse transcription (RT) reaction was performed with SuperScript™ II reverse transcriptase (Invitrogen) and the primer 319R below according to the manufacturer's experiment protocol. HCV RNA was quantified by real-time LightCycler PCR, using the resulting cDNA as a template. Real-Time LightCycler PCR was performed based on the method previously reported by the present inventors (reference: Acta Med. Okayama 56, 107-110, 2002), using the primers 104 and 197R below.
as §1
(§6) The 1B-4RL8 and KAH5RL8 cells were examined with regard to a possible correlation between luciferase activity and HCV RNA level (FIG. 49). The graphs on the left represent the measured luciferase activities 24 hours after the addition of IFN-α (0, 1, 10, 100 IU/ml) to the 1B-4RL8 and KAH5RL8 cells (each cultured for 2 days after inoculating 2×10^4 cells in a 24-well plate). Measurements were made in at least 3 wells at each point. A one hundred percent measurement value of 300,000 was obtained for the 1B-4RL8 and KAH5RL8 cells. […]

In data set [11] the test system is full-length HCV RNA replication in KAH5RL8 cells. Briefly: luciferase activity and HCV RNA level in KAH5RL8 cells. The conditions noted are these: 24 hours after the addition of IFN-α (1, 10, 100 IU/ml). Format: cell-based, HCV strain KAH5 (genotype 1b). On the procedure: as §5, §1, §6
Setting [12] is: IFN-α at 0.25 IU/ml, ribavirin at 12.5 W.
Where [13] appears, read: drug concentrations based on the EC50 values.
[14] abbreviates: 24 hours after the addition of IFN-α (1, 10, 100 IU/ml).

With `NC(=O)c1ncn([C@@H]2O[C@H](CO)[C@@H](O)[C@H]2O)n1` [Ribavirin], the EC50 in [1] (Hepatitis C virus, read-out: EC50) was 119 µM; in data set [3] (Hepatitis C virus, 72 h, luciferase activity after 72 hours, read-out: EC50), 15.9 µM; in data set [4] (Hepatitis C virus, luciferase activity after 72 hours, read-out: EC50), 10.1 µM; in [6] it was 76 µM. For the same compound, the “luciferase activity after treatment (single agent or combined use)” value came to 97% in data set [1] (IFN-α at 0.25 IU/ml, ribavirin); 49% in data set [3] (setting [12]); 35% in [4] (IFN-α at 0.25 IU/ml, ribavirin). Further, the “cell count over the control cells” value with ORL11 cells (ORL11 cells, drug at the concentration corresponding to the EC50 value, trypan blue) is at least 98%; in the data set on OR6 cells it was at least 98%; in the data set on ORL8 cells it was at least 98%. Besides, the blood concentrations in data set [2] is 10 to 14 µM. Besides, the cytotoxicity entry in [5] was “not recognized”.

Take IFN-α: the “luciferase activity after treatment (single agent or combined use)” value in data set [1] (IFN-α at 0.25 IU/ml, ribavirin) is reported as 75%; in [1] (setting [13]) it was 67%; in [3] (setting [12]), 48%; in data set [3] (setting [13]), 41%; in [4] (IFN-α at 0.25 IU/ml, ribavirin), 26%; in [4] (setting [13]) it was 50%. The EC50 is reported as 0.40 IU/ml in [1], 0.25 IU/ml in data set [7] and 0.14 IU/ml in [9]. Also, the “cell count over the control cells” value with ORL11 cells, with OR6 cells and in the data set with ORL8 cells was at least 95% throughout. In addition, the “measured luciferase activity value” in data set [3] (1 IU/ml IFN-α) is recorded as 300,000; in data set [3] (10 IU/ml IFN-α), 76,000; in data set [3] (100 IU/ml IFN-α) it was 27,000; in [4] (addition of 1 IU/ml IFN-α), 113,000; in [4] (addition of 10 IU/ml IFN-α), 36,000; in data set [4] (addition of 100 IU/ml IFN-α), 19,000. Moreover, the “luciferase activity and HCV RNA level” value in data set [3] (setting [14]), in data set [4] (setting [14]), in [10] and in data set [11] was “decreased in a manner that depended on IFN-α concentration” each time. Moreover, the “sensitivity of full-length HCV RNA replication (G418-resistant colonies)” value in [8] is “highly sensitive”.
